# Measured values as given in patent US20220235057A1, “CYCLIC FORMYL AND CYCLIC KETONE COMPOUNDS, PREPARATION METHOD THEREFOR, AND PHARMACEUTICAL USE” (priority 2019, published 2022).
# System: drug resistant strains of Acinetobacter baumannii
# Assay: anti-drug resistant strains of Acinetobacter baumannii (inhibition zone); further: test concentration or dose not given here
# Type: cell-based
# [1] = resistant strain of Acinetobacter baumannii no. 16
# [2] = resistant strain of Acinetobacter baumannii no. 17
# [3] = resistant strain of Acinetobacter baumannii no. 18
# [4] = resistant strain of Acinetobacter baumannii no. 19
# [5] = resistant strain of Acinetobacter baumannii no. 20
SMILES,"inhibition zone, diameter [1] [mm]","inhibition zone, diameter [2] [mm]","inhibition zone, diameter [3] [mm]","inhibition zone, diameter [4] [mm]","inhibition zone, diameter [5] [mm]"
COc1ccc(C2N(Nc3ccccc3)C(=O)C3CCCCN32)cc1O (stereo not drawn) [ZKD-19B],68,68,68,68,68
Cc1cnc2c(S(=O)(=O)N3CCCCC3C(=O)NNc3ccc(F)cc3)cccc2c1 (stereo not drawn) [ZKD-21],60,48,53,64,68
COc1cc(C2N(Nc3ccccc3)C(=O)C3CCCCN32)ccc1O (stereo not drawn) [ZKD-18B],68,68,68,68,68
"O=C1C2CCCCN2C(c2ccc(O)cc2)N1Nc1ccccc1 (single isomer, unassigned) [ZKD-4A]",58,40,66,68,62
"O=C1C2CCCCN2C(c2ccc(O)cc2)N1Nc1ccccc1 (single isomer, unassigned) [ZKD-4B]",68,68,68,68,68
O=C(NNc1ccc(F)cc1)C1CCCCN1 (stereo not drawn) [ZKD-17],67,68,36,68,68
O=C1C2CCCCN2[C@@H](c2ccc(B(O)O)cc2)N1Nc1ccccc1 (stereo partly drawn) [ZKD-10B],39,48,45,46,54
O=C1C2CCCCN2[C@H](c2ccco2)N1Nc1ccccc1 (stereo partly drawn) [ZKD-5A],68,68,68,68,68
O=C1C2CCCCN2C(c2ccc(B(O)O)cc2)N1Nc1ccccc1 (stereo not drawn) [ZKD-10A],56,53,55,48,68
O=C(NNc1ccc(F)cc1)c1ncc[nH]1 [ZBM-28],51,68,64,64,68
COc1ccc([C@H]2N(Nc3ccccc3)C(=O)C3CCCCN32)cc1OC (stereo partly drawn) [ZKD-6B],16,17,16,20,40
COc1ccc([C@@H]2N(Nc3ccccc3)C(=O)C3CCCCN32)cc1O (stereo partly drawn) [ZKD-19A],68,68,68,68,68
COc1cc([C@@H]2N(Nc3ccccc3)C(=O)C3CCCCN32)ccc1O (stereo partly drawn) [ZKD-18A],68,68,68,68,68
"COc1ccc(CC2N(Nc3ccccc3)C(=O)C3CCCCN32)cc1OC (single isomer, unassigned) [ZKD-13A]",68,68,68,64,68
"COc1ccc(CC2N(Nc3ccccc3)C(=O)C3CCCCN32)cc1OC (single isomer, unassigned) [ZKD-13B]",68,68,36,64,68
Cn1cncc1C(=O)NNc1ccc(F)cc1 [ZBM-30],45,68,45,68,68
"COc1ccc(CC2N(Nc3ccccc3)C(=O)C3CCCCN32)cc1O (single isomer, unassigned) [ZKD-12B]",68,68,55,60,68
O=C(NNc1ccc(F)cc1)c1cc2ccc(Cl)cc2[nH]1 [ZBM-36],30,58,21,68,68
COc1ccc(C2N(Nc3ccccc3)C(=O)C3CCCCN32)cc1OC (stereo not drawn) [ZKD-6A],45,43,20,25,64
O=C(NNc1ccc(F)cc1)c1ccc2cc[nH]c2c1 [ZBM-24],38,68,6,50,68
"COc1ccc(CC2N(Nc3ccccc3)C(=O)C3CCCCN32)cc1O (single isomer, unassigned) [ZKD-12A]",65,68,68,58,68
